In one assay the target is T1, THR beta-LBD (Homo sapiens, UniProt P10828).
T1 construct: THR beta-LBD (the final concentration is 0.5 nM) was added to the 384-well assay plate; purchased Invitrogen PV4686
T1 sequence (P10828 217-461 limits assumed): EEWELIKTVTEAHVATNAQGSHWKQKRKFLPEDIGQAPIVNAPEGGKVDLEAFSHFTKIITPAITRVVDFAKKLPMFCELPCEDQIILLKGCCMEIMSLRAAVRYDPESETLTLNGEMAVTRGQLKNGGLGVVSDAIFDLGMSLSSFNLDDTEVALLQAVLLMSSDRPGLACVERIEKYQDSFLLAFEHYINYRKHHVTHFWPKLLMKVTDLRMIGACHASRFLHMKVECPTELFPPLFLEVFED
The assay is described as follows: THR-β Coactivator Peptide Recruitment Assay (LanthaScreen TR-FRET). As to conditions: TR-FRET coactivator recruitment, THR beta-LBD 0.5 nM; for EC50: read-out: THRβ EC50. Type of assay: biochemical. The procedure, abridged:
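Agonist-driven coactivator recruitment read as a 520/495 nm TR-FRET emission ratio after 2 h at room temperature. Final concentrations: THR beta-LBD 0.5 nM, fluorescein-SRC2-2 peptide 0.1 nM, terbium anti-GST antibody 2 nM. EC50 from four-parameter dose-response fitting.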
Background: TR-FRET usually uses a lanthanide donor and a delayed reading to cut background.

In a further assay the target is T2, THR alpha-LBD (Homo sapiens, UniProt P10827).
T2 construct: except that THR alpha-LBD of a final concentration 0.25 nM was used; purchased Invitrogen PV4687
T2 sequence (P10827 163-410 isoform P10827-2 limits assumed, other chains not shown): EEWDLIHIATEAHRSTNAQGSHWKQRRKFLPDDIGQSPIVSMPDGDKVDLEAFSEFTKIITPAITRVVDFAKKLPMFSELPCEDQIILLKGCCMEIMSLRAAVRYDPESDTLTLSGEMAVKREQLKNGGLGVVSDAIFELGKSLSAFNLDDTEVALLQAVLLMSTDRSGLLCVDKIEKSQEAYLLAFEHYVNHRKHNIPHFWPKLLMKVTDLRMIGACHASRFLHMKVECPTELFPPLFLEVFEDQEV
As to the kind of experiment: THR-α Coactivator Peptide Recruitment Assay (LanthaScreen TR-FRET). The format is biochemical. Conditions: TR-FRET coactivator recruitment, THR alpha-LBD 0.25 nM; for EC50: read-out: THRα EC50. The procedure, abridged:
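TR-FRET coactivator recruitment with THR alpha-LBD at 0.25 nM final, Fluorescein-SRC2-2 peptide 0.1 nM and Tb-labeled anti-GST antibody 2 nM; 2 h incubation at room temperature. 520/495 nm emission ratio fitted to a four-parameter sigmoidal curve to give EC50.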

This is an account of results in patent US12291518B2, “Thyroid hormone receptor agonists and use thereof” (Eccogene Inc., priority 2020, dated 2025).

For the compound `COCC1(NS(=O)(=O)c2cc(Oc3c(Cl)cc(-n4nc(C(F)F)c(=O)[nH]c4=O)cc3Cl)ncc2O)CC1` [Compound 103, 2-(2,6-dichloro-4-(6-(difluoromethyl)-3,5-dioxo-4,5-dihydro-1,2,4-triazin-2(3H)-yl)phenoxy)-5-hydroxy-N-(1-(methoxymethyl)cyclopropyl)pyridine-4-sulfonamide], on THR beta-LBD, the “THRβ Emax” value was “C (<75)” and the concentration giving a half-maximal response (EC50) (usually the concentration needed to bring the measured effect to its halfway point) lay within 2 to 20 nM. Besides, at THR alpha-LBD, the “THRα Emax” value is “B (40~85)” and the 50% effective concentration (EC50) is more than 1000 nM.

In the case of `O=c1[nH]c(=O)n(-c2cc(Cl)c(Oc3cc(S(=O)(=O)N[C@H]4CCOC4)c(O)cn3)c(Cl)c2)nc1C(F)F` [Compound 104, (S)-2-(2,6-dichloro-4-(6-(difluoromethyl)-3,5-dioxo-4,5-dihydro-1,2,4-triazin-2(3H)-yl)phenoxy)-5-hydroxy-N-(tetrahydrofuran-3-yl)pyridine-4-sulfonamide], at THR beta-LBD, the “THRβ Emax” value is reported as “B (75~90)” and the EC50 is less than 2 nM. At THR alpha-LBD, the “THRα Emax” value is “B (40~85)” and the EC50 was in the range of 2 to 200 nM.

`O=c1[nH]c(=O)n(-c2cc(Cl)c(Oc3cc(S(=O)(=O)NC4CC(F)(F)C4)c(O)cn3)c(Cl)c2)nc1C(F)F` [Compound 105, 2-(2,6-dichloro-4-(6-(difluoromethyl)-3,5-dioxo-4,5-dihydro-1,2,4-triazin-2(3H)-yl)phenoxy)-N-(3,3-difluorocyclobutyl)-5-hydroxypyridine-4-sulfonamide]: on THR beta-LBD, the “THRβ Emax” value is on record as “B (75~90)” and the EC50 was less than 2 nM. At THR alpha-LBD, the “THRα Emax” value is listed as “A (85~110)” and the EC50 lay within 2 to 200 nM.

On to `O=c1[nH]c(=O)n(-c2cc(Cl)c(Oc3cc(S(=O)(=O)N[C@@H]4CCOC4)c(O)cn3)c(Cl)c2)nc1C(F)F` [Compound 106, (R)-2-(2,6-dichloro-4-(6-(difluoromethyl)-3,5-dioxo-4,5-dihydro-1,2,4-triazin-2(3H)-yl)phenoxy)-5-hydroxy-N-(tetrahydrofuran-3-yl)pyridine-4-sulfonamide], for which, at THR beta-LBD, the “THRβ Emax” value is listed as “B (75~90)” and the EC50 fell in the range of 2 to 20 nM. Moreover, on THR alpha-LBD, the “THRα Emax” value is on record as “A (85~110)” and the EC50 lay in the range of 2 to 200 nM.

Regarding `O=c1[nH]c(=O)n(-c2cc(Cl)c(Oc3cc(S(=O)(=O)N4CC(O)C4)c(O)cn3)c(Cl)c2)nc1C(F)F` [Compound 107, 2-(3,5-dichloro-4-((5-hydroxy-4-((3-hydroxyazetidin-1-yl)sulfonyl)pyridin-2-yl)oxy)phenyl)-6-(difluoromethyl)-1,2,4-triazine-3,5(2H,4H)-dione], on THR beta-LBD, the “THRβ Emax” value is “B (75~90)” and the EC50 was in the range of 2 to 20 nM. Further, at THR alpha-LBD, the “THRα Emax” value is “B (40~85)” and the EC50 lay in the range of 2 to 200 nM.

For `O=c1[nH]c(=O)n(-c2cc(Cl)c(Oc3cc(S(=O)(=O)N4CC[C@H](O)C4)c(O)cn3)c(Cl)c2)nc1C(F)F` [Compound 108, (S)-2-(3,5-dichloro-4-((5-hydroxy-4-((3-hydroxypyrrolidin-1-yl)sulfonyl)pyridin-2-yl)oxy)phenyl)-6-(difluoromethyl)-1,2,4-triazine-3,5(2H,4H)-dione], on THR beta-LBD, the “THRβ Emax” value is given as “B (75~90)” and the EC50 was 2 to 20 nM. At THR alpha-LBD, the “THRα Emax” value is recorded as “B (40~85)” and the EC50 fell in the range of 2 to 200 nM.

Consider `O=c1[nH]c(=O)n(-c2cc(Cl)c(Oc3cc(S(=O)(=O)N4CC(F)(F)C4)c(O)cn3)c(Cl)c2)nc1C(F)F` [Compound 109, 2-(3,5-dichloro-4-((4-((3,3-difluoroazetidin-1-yl)sulfonyl)-5-hydroxypyridin-2-yl)oxy)phenyl)-6-(difluoromethyl)-1,2,4-triazine-3,5(2H,4H)-dione], for which, on THR beta-LBD, the “THRβ Emax” value was “B (75~90)” and the EC50 is less than 2 nM. On THR alpha-LBD, the “THRα Emax” value is recorded as “A (85~110)” and the EC50 lay in the range of 2 to 200 nM.

Consider `CC(C)NS(=O)(=O)c1cc(Oc2c(Cl)cc(-n3nc(C(F)F)c(=O)[nH]c3=O)cc2Cl)ncc1O` [Compound 110, 2-(2,6-dichloro-4-(6-(difluoromethyl)-3,5-dioxo-4,5-dihydro-1,2,4-triazin-2(3H)-yl)phenoxy)-5-hydroxy-N-isopropylpyridine-4-sulfonamide], for which, at THR beta-LBD, the “THRβ Emax” value is given as “A (90~110)” and the EC50 was less than 2 nM. Moreover, at THR alpha-LBD, the “THRα Emax” value is listed as “A (85~110)” and the half-maximal effective concentration (EC50) fell in the range of 2 to 200 nM.

On to `O=c1[nH]c(=O)n(-c2cc(Cl)c(Oc3cc(S(=O)(=O)NCC(F)F)c(O)cn3)c(Cl)c2)nc1C(F)F` [Compound 111, 2-(2,6-dichloro-4-(6-(difluoromethyl)-3,5-dioxo-4,5-dihydro-1,2,4-triazin-2(3H)-yl)phenoxy)-N-(2,2-difluoroethyl)-5-hydroxypyridine-4-sulfonamide], for which, at THR beta-LBD, the “THRβ Emax” value is reported as “A (90~110)” and the concentration for a half-maximal effect (EC50) was less than 2 nM. Moreover, on THR alpha-LBD, the “THRα Emax” value is reported as “A (85~110)” and the half-maximal effective concentration (EC50) lay in the range of 2 to 200 nM.

With `CCNS(=O)(=O)c1cc(Oc2c(Cl)cc(-n3nc(C(F)F)c(=O)[nH]c3=O)cc2Cl)ncc1O` [Compound 112, 2-(2,6-dichloro-4-(6-(difluoromethyl)-3,5-dioxo-4,5-dihydro-1,2,4-triazin-2(3H)-yl)phenoxy)-N-ethyl-5-hydroxypyridine-4-sulfonamide], at THR beta-LBD, the “THRβ Emax” value is recorded as “A (90~110)” and the EC50 was less than 2 nM. Further, on THR alpha-LBD, the “THRα Emax” value is “A (85~110)” and the EC50 lay within 2 to 200 nM.

For `CN(C)S(=O)(=O)c1cc(Oc2c(Cl)cc(-n3nc(C(F)F)c(=O)[nH]c3=O)cc2Cl)ncc1O` [Compound 113, 2-(2,6-dichloro-4-(6-(difluoromethyl)-3,5-dioxo-4,5-dihydro-1,2,4-triazin-2(3H)-yl)phenoxy)-5-hydroxy-N,N-dimethylpyridine-4-sulfonamide], on THR beta-LBD, the “THRβ Emax” value was “B (75~90)” and the EC50 is less than 2 nM. Besides, at THR alpha-LBD, the “THRα Emax” value is “A (85~110)” and the EC50 lay within 2 to 200 nM.

`N#Cc1nn(-c2cc(Cl)c(Oc3cc(S(=O)(=O)NC4CC4)c(O)cn3)c(Cl)c2)c(=O)[nH]c1=O` [Compound 114, N-cyclopropyl-2-(2,6-dichloro-4-(6-cyano-3,5-dioxo-4,5-dihydro-1,2,4-triazin-2(3H)-yl)phenoxy)-5-hydroxypyridine-4-sulfonamide]: on THR beta-LBD, the “THRβ Emax” value is “A (90~110)” and the concentration giving a half-maximal response (EC50) was less than 2 nM. Further, on THR alpha-LBD, the “THRα Emax” value is on record as “A (85~110)” and the EC50 lay in the range of 2 to 200 nM.

With `O=C(NC1CCC1)C1(NS(=O)(=O)c2cc(Oc3c(Cl)cc(-n4nc(C(F)F)c(=O)[nH]c4=O)cc3Cl)ncc2O)CC1` [Compound 115, N-cyclobutyl-1-[[2-[2,6-dichloro-4-[6-(difluoromethyl)-3,5-dioxo-1,2,4-triazin-2-yl]phenoxy]-5-hydroxy-4-pyridyl]sulfonylamino]cyclopropanecarboxamide], at THR beta-LBD, the “THRβ Emax” value is “C (<75)” and the EC50 lay within 2 to 20 nM. For the same compound, at THR alpha-LBD, the “THRα Emax” value is reported as “B (40~85)” and the concentration giving a half-maximal response (EC50) was more than 1000 nM.

Take `O=C(NC1CCCC1)C1(NS(=O)(=O)c2cc(Oc3c(Cl)cc(-n4nc(C(F)F)c(=O)[nH]c4=O)cc3Cl)ncc2O)CC1` [Compound 116, N-cyclopentyl-1-((2-(2,6-dichloro-4-(6-(difluoromethyl)-3,5-dioxo-4,5-dihydro-1,2,4-triazin-2(3H)-yl)phenoxy)-5-hydroxypyridine)-4-sulfonamido)cyclopropane-1-carboxamide]: at THR beta-LBD, the “THRβ Emax” value is “C (<75)” and the EC50 fell in the range of 20 to 100 nM. Also, on THR alpha-LBD, the “THRα Emax” value is recorded as “B (40~85)” and the EC50 is more than 1000 nM.

Consider `O=C(NCC(F)F)C1(NS(=O)(=O)c2cc(Oc3c(Cl)cc(-n4nc(C(F)F)c(=O)[nH]c4=O)cc3Cl)ncc2O)CC1` [Compound 117, 1-((2-(2,6-dichloro-4-(6-(difluoromethyl)-3,5-dioxo-4,5-dihydro-1,2,4-triazin-2(3H)-yl)phenoxy)-5-hydroxypyridine)-4-sulfonamido)-N-(2,2-difluoroethyl)cyclopropane-1-carboxamide], for which, on THR beta-LBD, the “THRβ Emax” value was “C (<75)” and the 50% effective concentration (EC50) is 20 to 100 nM. Further, on THR alpha-LBD, the “THRα Emax” value was “C (<40)” and the 50% effective concentration (EC50) is more than 1000 nM.

For the compound `O=C(N1CCCC1)C1(NS(=O)(=O)c2cc(Oc3c(Cl)cc(-n4nc(C(F)F)c(=O)[nH]c4=O)cc3Cl)ncc2O)CC1` [Compound 118, 2-(2,6-dichloro-4-(6-(difluoromethyl)-3,5-dioxo-4,5-dihydro-1,2,4-triazin-2(3H)-yl)phenoxy)-5-hydroxy-N-(1-(pyrrolidine-1-carbonyl)cyclopropyl)pyridine-4-sulfonamide], at THR beta-LBD, the “THRβ Emax” value is listed as “B (75~90)” and the concentration for a half-maximal effect (EC50) was more than 100 nM. At THR alpha-LBD, the “THRα Emax” value is given as “C (<40)” and the EC50 is more than 1000 nM.

Turning to `O=C(CNS(=O)(=O)c1cc(Oc2c(Cl)cc(-n3nc(C(F)F)c(=O)[nH]c3=O)cc2Cl)ncc1O)NC1CCC1` [Compound 119, N-cyclobutyl-2-[[2-[2,6-dichloro-4-[6-(difluoromethyl)-3,5-dioxo-1,2,4-triazin-2-yl]-phenoxy]-5-hydroxy-4-pyridyl]-sulfonylamino]-acetamide], at THR beta-LBD, the “THRβ Emax” value is reported as “C (<75)” and the EC50 was more than 100 nM. Besides, at THR alpha-LBD, the “THRα Emax” value was “C (<40)” and the EC50 is more than 1000 nM.
